Results from patent US5686486A, “4-hydroxy-benzopyran-2-ones and 4-hydroxy-cycloalkyl[b]pyran-2-ones useful to treat retroviral infections” (priority 1995, dated 1997).
Where two headings read alike, the source gives them in different places.

Biological target: HIV-1 protease (Human immunodeficiency virus type 1 group M subtype B, UniProt P04585)
Experiment: biochemical
Settings: for inhibition at 1 µM: read-out: HIV-1 Protease % Inhib, dose 1.000 uM; for inhibition at 100 µM: read-out: HIV-1 Protease % Inhib, dose 100.000 uM; for IC50: HIV-1 Protease IC50; for inhibition at 0.123 µM: read-out: HIV-1 Protease % Inhib, dose 0.123 uM
Method: The HIV protease screening assay is based on fluorescently labeled substrate which can be resolved from nonlabeled cleavage product using special beads coated with streptavidin. The substrate is biotinylated at the amino terminal arginine and fluorescently labeled with fluorescein isothiocynate (FITC) at the carboxyl terminal lysine. This assay has been employed to detect novel, nonpeptidic inhibitors of HIV-1 protease. Substrate (20 μl of 0.2 μM), sample (10 μl of desired concentration), and enzyme (10 μl of 0.1 μM) are added to a 96 well pandex plate. The assay is run in 0.1M sodium acetate buffer at pH 5.5 in the presence of 1.0M sodium chloride and 0.05% NP-40 with incubated in the dark for one hour at room temperature. Strepavidin coated polystyrene beads {40 μl of 0.1% (w/v)} are added and the plate is incubated in the dark for an additional half hour. The labeled cleavage product is separated from the unreacted substrate via filtration and is read on the Idexx screen machine. The data are analyzed by appropriate computer algorithms to ascertain percent inhibition values.

[1] = read-out: HIV-1 Protease % Inhib, dose 10.000 uM
[2] = dose 1.100 uM, read-out: HIV-1 Protease % Inhib
[3] = dose 3.300 uM, read-out: HIV-1 Protease % Inhib
[4] = dose 10.000 uM, read-out: HIV-1 Protease % Inhib
[5] = dose 30.000 uM, read-out: HIV-1 Protease % Inhib
[6] = read-out: HIV-1 Protease % Inhib, dose 0.370 uM
[7] = read-out: HIV-1 Protease % Inhib, dose 1.100 uM
[8] = read-out: HIV-1 Protease % Inhib, dose 3.300 uM
[9] = read-out: HIV-1 Protease % Inhib, dose 30.000 uM

SMILES	inhibition at 1 µM	inhibition at 10 µM [1]	inhibition at 100 µM	inhibition at 0.37 µM [6]	further results
CCC(c1cccc(NC(=O)CC(C)(C)NC(=O)OC(C)(C)C)c1)c1c(O)c2ccccc2oc1=O (centres unmarked) [Example 47, Coumarin, 4-hydroxy-3-[1-[3-[[1-oxo-3-methyl-3-[(1,1-dimethylethoxycarbonyl)amino]butyl]amino]phenyl]propyl]-]	< 10%	< 10%	53%		
O=c1oc2ccccc2c(O)c1C1CCOc2ccccc21 (centres unmarked) [Example 158, 4-Hydroxy-3',4'-dihydro-2'H-[3,4]bichromenyl-2-one]	< 10%	26.7%	93.4%		
O=c1oc2c(c(O)c1C(c1ccccc1)C1CC1)CCCCC2CC1CCCOC1 (centres unmarked) [Example 187, 3-(Cyclopropylphenylmethyl)-6,7,8,9-tetrahydro-4-hydroxy-9-[(tetrahydro-2H-pyran-3-yl)methyl]-cyclohepta[b]pyran-2(5H)-one]					inhibition at 0.37 µM (dose 0.370 uM, read-out: HIV-1 Protease % Inhib): 10.6%; inhibition at 1.1 µM [2]: 32.9%; inhibition at 3.3 µM [3]: 68%; inhibition at 10 µM [4]: 90%; inhibition at 30 µM [5]: 90.2%
CCC(c1cccc(NC(=O)CNC(=O)OC(C)(C)C)c1)c1c(O)c2ccccc2oc1=O (centres unmarked) [Example 43, Coumarin, 4-hydroxy-3-[1-[3-[[[[(1,1-dimethylethoxycarbonyl)amino]methyl]carbonyl]amino]phenyl]propyl]-]	28.4%	103%	122%		IC50: 2.1 µM
CC(C)CC(c1ccccc1)c1c(O)c2ccccc2oc1=O (centres unmarked) [Example 14, 4-Hydroxy-3-(3-methyl-1-phenylbutyl)-coumarin]	32.2%	64.6%	87.1%		
O=c1oc2c(c(O)c1C(c1ccccc1)C1CC1)CCCCC2CC1CCCCO1 (centres unmarked) [Example 190, 3-(Cyclopropylphenylmethyl)-6,7,8,9-tetrahydro4-hydroxy-9-[(tetrahydro-2H-pyran-2-yl)methyl]-cyclohepta[b]pyran-2(5H)-one]					inhibition at 1.1 µM [2]: 35.9%; inhibition at 3.3 µM [3]: 79.3%; inhibition at 10 µM [4]: 96%; inhibition at 30 µM [5]: 102%
CCCCC(=O)Nc1cccc(C(CC)c2c(O)c3ccccc3oc2=O)c1 (centres unmarked) [Example 44, Coumarin, 4-hydroxy-3-[1-[3-[(1-oxopentyl)amino]phenyl]propyl]-]	< 10%	< 10%	55.6%		
CCC(c1cccc(NC(=O)COc2cccc3ccccc23)c1)c1c(O)c2ccccc2oc1=O (centres unmarked) [Example 41, Coumarin, 4-hydroxy-3-[1-[3-[[(1-naphthoxymethyl)carbonyl]amino]phenyl]propyl]-]	< 10%	32.6%	80.6%		
CCC(c1ccccc1)c1c(O)c2ccc(OC(C)C)cc2oc1=O (stereo not drawn) [Example 81, Coumarin, 3-(α-ethylbenzyl)-4-hydroxy-7-(1-methylethoxy)-]	62%	75.6%	85.3%		IC50: 3.7 µM
CCC(c1c(O)c2ccccc2oc1=O)c1cccc2ccccc12 (centres unmarked) [Example 20, 4-Hydroxy-3-(1-(1-naphthyl)-propyl)-coumarin]	< 10%	20.3%	79.8%		
O=c1oc2c(c(O)c1C(c1ccccc1)c1ccccc1)CCCCCC2 [Example 481, 3-(Diphenylmethyl)-5,6,7,8,9,10-hexahydro-4-hydroxy-2H-cycloocta[b]pyran-2-one]		98%		118%	inhibition at 1.1 µM [7]: 51.2%; inhibition at 3.3 µM [8]: 85.3%; inhibition at 30 µM [9]: 107%
CCC(c1cccc(NS(=O)(=O)c2ccc(C#N)cc2)c1)c1c(O)c2c(oc1=O)CCCCCC2 (centres unmarked) [Example 222, Benzenesulfonamide, 4-cyano-N-[3-[1-(5,6,7,8,9,10-hexahydro-4-hydroxy-2-oxo-2H-cycloocta[b]pyran-3-yl)propyl]phenyl]-]		111%		94.1%	inhibition at 0.123 µM: 80.4%; inhibition at 1.1 µM [7]: 103%; inhibition at 3.3 µM [8]: 110%; inhibition at 30 µM [9]: 110%
O=c1oc2ccccc2c(O)c1CC(c1ccccc1)c1ccccc1 [Example 4, 4-Hydroxy-3-(2,2-diphenylethyl)-coumarin]	< 10%	12.4%	45.3%		
CCNC(=O)Nc1cccc(C(c2c(O)c3c(oc2=O)CCCCCC3)C2CC2)c1 (centres unmarked) [Example 223, N-[3-[Cyclopropyl(5,6,7,8,9,10-hexahydro-4-hydroxy-2-oxo-2H-cycloocta[b]pyran-3-yl)methyl]phenyl]-N'-ethyl-urea]		102%		31.3%	inhibition at 0.123 µM: 11.1%; inhibition at 1.1 µM [7]: 62.3%; inhibition at 3.3 µM [8]: 85.7%; inhibition at 30 µM [9]: 101%
O=C(O)c1cccc(S(=O)(=O)Nc2cccc(C(c3c(O)c4c(oc3=O)CCCCCC4)C3CC3)c2)c1 (centres unmarked) [Example 292, 3-[[[3-[Cyclopropyl(5,6,7,8,9,10-hexahydro4-hydroxy-2-oxo-2H-cycloocta[b]pyran-3-yl)methyl]phenyl]amino]sulfonyl]-benzoic acid]		115%		104%	inhibition at 0.123 µM: 74.4%; inhibition at 1.1 µM [7]: 111%; inhibition at 3.3 µM [8]: 125%; inhibition at 30 µM [9]: 111%
CC(C)(O)C1CCCCCc2c1oc(=O)c(C(c1ccccc1)C1CC1)c2O (centres unmarked) [Example 175, 3-(Cyclopropylphenylmethyl)-5,6,7,8,9,10-hexahydro-4-hydroxy-10-(1-hydroxy-1-methylethyl)-2H-cycloocta[b]pyran-2-one]					inhibition at 1.1 µM [2]: 19.4%; inhibition at 3.3 µM [3]: 55.5%; inhibition at 10 µM [4]: 88.5%; inhibition at 30 µM [5]: 105%
CCCCOc1ccc(S(=O)(=O)Nc2cccc(C(c3c(O)c4c(oc3=O)CCCCCC4)C3CC3)c2)cc1 (centres unmarked) [Example 406, 4-Butoxy-N-[3-[cyclopropyl(5,6,7,8,9,10-hexahydro-4-hydroxy-2-oxo-2H-cycloocta[b]pyran-3-yl)methyl]phenyl]-benzenesulfonamide]				69.4%	HIV-1 Protease % Inhib (dose 1.100 uM): 87.61%; HIV-1 Protease % Inhib (dose 3.300 uM): 85.17%; HIV-1 Protease % Inhib (dose 10.000 uM): 97.39%; HIV-1 Protease % Inhib (dose 30.000 uM): 97.21%; inhibition at 0.123 µM: 37.1%
CCC(c1ccccc1)c1c(O)c2ccc(OCCOCCOC)cc2oc1=O (centres unmarked) [Example 151, 4-Hydroxy-7-(2-(2-methoxy-ethoxy)-ethoxy)-3-(1-phenyl-propyl)-chromen-2-one]	29.1%	82.8%	92.4%		
Cc1ccc(S(=O)(=O)Nc2cccc(C(c3c(O)c4c(oc3=O)CCCCCC4)C3CC3)c2)cc1 (centres unmarked) [Example 325, N-[3-[Cyclopropyl(5,6,7,8,9,10-hexahydro-4-hydroxy-2-oxo-2H-cycloocta[b]pyran-3-yl)methyl]phenyl]4-methyl-benzenesulfonamide]		115%		86.6%	inhibition at 0.123 µM: 59.8%; inhibition at 1.1 µM [7]: 95.6%; inhibition at 3.3 µM [8]: 105%; inhibition at 30 µM [9]: 115%
CC(=O)Oc1ccc(C(C)(C)c2c(O)c3ccccc3oc2=O)cc1 [Example 150, Acetic acid 4-(1-(4-Hydroxy-2-oxo-2H-chromen-3-yl)-l-methyl-ethyl)-phenylester]	< 10%	62.4%	93%		
